This is an account of results in ChEMBL document CHEMBL1201862, “PubChem BioAssay data set” (2004).

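Test compounds were applied to cells in 96-well plates for 48 hours at 5 doses. GI50 = concentration required for 50% inhibition of growth.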 The source made the active and inactive calls. Rule as the data show it: active = GI50 up to about 1.1 µM and inactive = higher.

Test systems include 786-0; A498; CCRF-CEM; DU-145; HCC 2998; HCT-116; HCT-15; HOP-92; HT-29; K562; KM12; LOX IMVI; NCI-H226; NCI-H23; SF-295; SNB-19; SR; T47D; UACC-62; NCI/ADR-RES.
Holding throughout (assay): inhibition of tumour cell growth, NCI panel, 48 h

Regarding `NC1=C(Cl)C(=O)c2ccccc2C1=O`, the GI50 was 7.4 µM (inactive) in the test on 786-0; 19.9 µM (inactive) with A498; 5.15 µM (inactive) in the test on CCRF-CEM; 1.87 µM (inactive) in the test on DU-145; 10.6 µM (inactive) with HCC 2998; 3.77 µM (inactive) in the test with HCT-116. The GI50 is 3.46 µM in the test with HCT-15; 14.6 µM (inactive) in the test on HOP-92; 4.99 µM (inactive) with HT-29; 8.11 µM (inactive) with K562; 8.05 µM (inactive) with KM12; 2.28 µM (inactive) with LOX IMVI. The GI50 was 7.35 µM (inactive) in the test with NCI-H226; 1.77 µM (inactive) in the test with NCI-H23; 6.87 µM (inactive) with SF-295; 9.46 µM (inactive) with SNB-19; 4.32 µM (inactive) with SR; 2.87 µM (inactive) in the test with T47D. Also, in the test on UACC-62, the GI50 is 1.08 µM (active).

Take `COc1ccc(C(O)/C(=C/n2ccnc2)c2ccccc2)cc1OC` (centres undefined): the GI50 with 786-0 was > 100 µM (inactive); with A498, > 100 µM (inactive); in the test with CCRF-CEM, > 100 µM (inactive); in the test with HCC 2998 it was > 100 µM (inactive); with HCT-116, > 100 µM (inactive); in the test with HCT-15, over 100 µM. For the same compound, the GI50 in the test on HOP-92, in the test on HT-29, in the test on K562, with KM12, in the test on LOX IMVI and with NCI-H226 was > 100 µM (inactive) throughout. Also, the GI50 with NCI-H23, in the test on SF-295, in the test on SNB-19, in the test on SR and in the test on UACC-62 was > 100 µM (inactive) each time.

Consider `CN(C)CCCN1CCc2c([nH]c3ccccc23)C1c1cccnc1` (centres undefined), for which the GI50 in the test with 786-0 was > 100 µM (inactive); with A498, > 100 µM (inactive); with CCRF-CEM, > 100 µM (inactive); with HCC 2998 it was > 100 µM (inactive); in the test with HCT-116, > 100 µM (inactive); in the test with HCT-15, over 100 µM. Moreover, the GI50 in the test with HOP-92 is 33.8 µM (inactive); in the test on HT-29 it was > 100 µM (inactive); in the test with K562, > 100 µM (inactive); in the test on KM12, > 100 µM (inactive); in the test with LOX IMVI, > 100 µM (inactive); with NCI-H226 it was > 100 µM (inactive). The GI50 in the test on NCI-H23, in the test with SF-295, in the test on SNB-19, in the test on SR and with UACC-62 was > 100 µM (inactive) each time.

For `CC1(C)C(=O)/C=C\C(=O)C(C)(C)C(=O)/C=C\C(=O)C(C)(C)C2=CC=C(O2)C(C)(C)C(=O)/C=C\C1=O`, the GI50 in the test on 786-0 was 2.24 µM (inactive); in the test on A498 it was 16.8 µM (inactive); in the test with CCRF-CEM, 0.368 µM (active); in the test with DU-145, 17.9 µM (inactive); in the test on HCC 2998 it was 11.7 µM (inactive); with HCT-116 it was 2.08 µM (inactive). Further, the GI50 with HCT-15 was 3.7 µM; with HOP-92, 1.8 µM (inactive); in the test with HT-29, 2.89 µM (inactive); in the test on K562, 1.63 µM (inactive); in the test with KM12, 12.7 µM (inactive); in the test on LOX IMVI, 5.14 µM (inactive). Also, the GI50 in the test with NCI-H226 was 13.6 µM (inactive); in the test with NCI-H23 it was 5.55 µM (inactive); in the test on SF-295 it was 17.3 µM (inactive); in the test with SNB-19 it was 16.7 µM (inactive); in the test with SR, 1.22 µM (inactive); in the test on T47D, 0.0775 µM (active). The GI50 in the test on UACC-62 was 5.07 µM (inactive).

Turning to `Cc1ccc(C(=O)N2CCN(C(=O)c3ccc(C)cc3)c3ccccc32)cc1`, the GI50 in the test on 786-0 is 3.41 µM (inactive); with A498, 5.2 µM (inactive); in the test with CCRF-CEM it was 1.6 µM (inactive); in the test with DU-145, 3.35 µM (inactive); in the test on HCC 2998 it was 6.58 µM (inactive); in the test with HCT-116, 3.04 µM (inactive). In addition, the GI50 is 1.94 µM in the test on HCT-15; 16.4 µM (inactive) in the test on HOP-92; 2.8 µM (inactive) in the test on HT-29; 2.55 µM (inactive) in the test on K562; 3.29 µM (inactive) in the test on KM12; 6.44 µM (inactive) with LOX IMVI. In addition, the GI50 in the test on NCI-H23 was 4.52 µM (inactive); in the test with SF-295, 3.09 µM (inactive); in the test with SNB-19, 5.77 µM (inactive); with SR, 0.547 µM (active); in the test on T47D, 6.43 µM (inactive); in the test with UACC-62 it was 2.01 µM (inactive).

For the compound `Cc1ccc(NC(=O)CC/C(CC(=O)C(C)(C)C)=N\NC(=O)C[n+]2ccccc2)cc1C`, the GI50 is > 100 µM (inactive) in the test with 786-0; > 100 µM (inactive) with A498; 45.3 µM (inactive) with CCRF-CEM; > 100 µM (inactive) in the test on HCC 2998; 74.5 µM (inactive) in the test on HCT-116; 53 µM in the test with HCT-15. Further, the GI50 is > 100 µM (inactive) in the test on HOP-92; 91.2 µM (inactive) in the test on HT-29; 46.9 µM (inactive) with K562; > 100 µM (inactive) in the test with KM12; 99.8 µM (inactive) in the test on LOX IMVI; > 100 µM (inactive) with NCI-H226. Besides, the GI50 with NCI-H23 is > 100 µM (inactive); with SF-295, > 100 µM (inactive); in the test with SNB-19, > 100 µM (inactive); in the test on SR it was 78.5 µM (inactive); with UACC-62, > 100 µM (inactive).

Regarding `COc1ccc(/N=N/C(=NNC(=O)c2ccc(C)cc2)c2ccc(N(C)C)cc2)cc1`, the GI50 with 786-0 was 39.1 µM (inactive); in the test with A498 it was 52 µM (inactive); in the test with CCRF-CEM, 14 µM (inactive); with DU-145, 25.1 µM (inactive); in the test with HCC 2998 it was 35.3 µM (inactive); with HCT-116, 34.4 µM (inactive). Moreover, the GI50 in the test with HCT-15 was 32.4 µM; in the test on HOP-92, 41.5 µM (inactive); in the test on HT-29 it was 30.3 µM (inactive); in the test on K562, 29.4 µM (inactive); with KM12, 30.1 µM (inactive); in the test on LOX IMVI, 34.8 µM (inactive). Besides, the GI50 in the test with NCI-H226 was 39.8 µM (inactive); in the test on NCI-H23, 26.4 µM (inactive); in the test on NCI/ADR-RES it was 33.8 µM (inactive); with SF-295, 28.4 µM (inactive); with SNB-19, 61.2 µM (inactive); in the test with SR it was 23.1 µM (inactive). Further, the GI50 in the test on UACC-62 is 25.1 µM (inactive).

As to `COP(=O)(OC)C(NC(=O)C(F)(F)F)(c1ccccc1)C(F)(F)F` (centres undefined), the GI50 in the test with 786-0 was > 100 µM (inactive); with A498, > 100 µM (inactive); with CCRF-CEM, > 100 µM (inactive); in the test on HCC 2998, > 100 µM (inactive); in the test with HCT-116, > 100 µM (inactive); in the test with HCT-15 it was over 100 µM. Moreover, the GI50 in the test on HOP-92, in the test with HT-29, with K562, in the test with KM12, with LOX IMVI and in the test with NCI-H226 was > 100 µM (inactive) each time. Also, the GI50 in the test with NCI-H23, in the test on SF-295, with SNB-19, with SR and in the test with UACC-62 was > 100 µM (inactive) throughout.

Take `Nc1csc(-c2scc3c2OCCO3)c1N`: the GI50 in the test with 786-0 was 17.3 µM (inactive); with A498, 17.6 µM (inactive); in the test with DU-145 it was 19.8 µM (inactive); in the test with HCC 2998 it was 22.4 µM (inactive); with HCT-116, 20 µM (inactive); in the test on HCT-15 it was 17.7 µM. The GI50 was 19.4 µM (inactive) in the test with HOP-92; 20.7 µM (inactive) in the test with HT-29; 24.4 µM (inactive) in the test with K562; 20.4 µM (inactive) with KM12; 16 µM (inactive) in the test with LOX IMVI; 17.3 µM (inactive) in the test with NCI-H226. The GI50 is 15.5 µM (inactive) with NCI-H23; 22.6 µM (inactive) with NCI/ADR-RES; 17.7 µM (inactive) in the test on SF-295; 32.7 µM (inactive) in the test with SNB-19; 28.6 µM (inactive) in the test on SR; 14.4 µM (inactive) in the test with UACC-62.

For the compound `O=P1(c2ccccc2)c2ccccc2-c2ccccc21`, the GI50 in the test on 786-0 is > 100 µM (inactive); in the test on CCRF-CEM it was 55.5 µM (inactive); in the test on DU-145, > 100 µM (inactive); in the test on HCC 2998, > 100 µM (inactive); in the test on HCT-116, 99.3 µM (inactive); in the test on HCT-15, over 100 µM. The GI50 was 13.9 µM (inactive) in the test on HOP-92; 86.9 µM (inactive) in the test on K562; > 100 µM (inactive) in the test with KM12; > 100 µM (inactive) with LOX IMVI; > 100 µM (inactive) in the test with NCI-H226; > 100 µM (inactive) in the test on NCI-H23. In addition, the GI50 is 57.8 µM (inactive) with SF-295, > 100 µM (inactive) with SNB-19 and 82.2 µM (inactive) in the test on UACC-62.

With `O=C1CCCC2=C1CC1=C(CCCC1=O)N2c1ccccc1C(=O)O`, the GI50 is > 100 µM (inactive) with 786-0; > 100 µM (inactive) with A498; > 100 µM (inactive) with CCRF-CEM; > 100 µM (inactive) in the test on HCC 2998; over 100 µM in the test on HCT-15; > 100 µM (inactive) with HOP-92. Further, the GI50 in the test on HT-29, with K562, in the test with KM12, with LOX IMVI, in the test on NCI-H226 and with NCI-H23 was > 100 µM (inactive) throughout. Also, the GI50 with NCI/ADR-RES, with SNB-19, in the test with SR and with UACC-62 was > 100 µM (inactive) throughout.

`CC(C)(O)C(O)COc1c2c(cc3oc(=O)ccc13)OCO2` (centres undefined): the GI50 in the test on 786-0 was > 100 µM (inactive); with A498, > 100 µM (inactive); in the test with CCRF-CEM, > 100 µM (inactive); in the test on HCC 2998 it was > 100 µM (inactive); with HCT-116 it was > 100 µM (inactive); in the test on HCT-15, over 100 µM. Moreover, the GI50 in the test on HOP-92, with HT-29, in the test on K562, with KM12, in the test with LOX IMVI and in the test on NCI-H226 was > 100 µM (inactive) throughout. For the same compound, the GI50 in the test with NCI-H23, in the test on SF-295, in the test with SNB-19, with SR and in the test on UACC-62 was > 100 µM (inactive) each time.
